From patent US20120165223A1 (priority 2006, published 2012)

What was measured:
glucosidase = assay: Fecal enzyme activity of flora of HFA mice: glucosidase; assay type: in vivo, human intestinal normal bacterial flora
Description: (§1) For the one week, the feces were picked free from germs with the interval of two to three days. The feces collected at the day of colistin sulfate administration, 2nd, 4th, 7th, 10th, 13th, 17th and 20th days and at 3rd and 5th day after the stop of medication are put in an encapsulated tube and moved to an anaerobic chamber immediately and the activity of glucuomidase, glucosidase, nitrate reductase and azoreductase produced by the human intestinal normal bacterial flora is measured. As a result glucuronidase is decreased throughout the period of administration and the withdrawal period in comparison with control groups and is not recovered even at the 5th day since the medication is stopped. Glucosidase is increased during the medication period in comparison with the control groups. Nitrate reductase is increased in comparison with the control group at the start day of administration and the 2nd day of the medication but is recovered. Azoreductase is increased in comparison with the control group until the 7th day of medication and then decreased.

aerobic bacteria = assay: Composition of flora in feces of HFA mice: number of aerobic bacteria; assay type: in vivo; settings: 7th, 10th and 13th day from the medication, 500 μg/Ml in drinking water
Text: (§2) For the one week, the feces were picked asceptially with the interval of two to three days. The feces collected of colistin sulfate administeration, 2nd, 4th, 7th, 10th, 13th and 17th days are put in an encapsulated tube and moved to an anaerobic chamber immediately and is put in the PRAS (Prereduced and anaerobically sterilized) TGY medium with the ten times dilution of the weight of feces. The total number of anaerobic bacteria, the number of Bacteroides fragilis and Bifidobacterium spp. of the anaerobic bacteria, the number of aerobic bacteria, and the number of Esherichia coli and Enterococcus spp. of the aerobic bacteria are measured. […] (FIG. 7)

nitrate reductase = assay: Fecal enzyme activity of flora of HFA mice: nitrate reductase; assay type: in vivo, human intestinal normal bacterial flora
Description: as §1

glucuronidase = assay: Fecal enzyme activity of flora of HFA mice: glucuronidase; assay type: in vivo, human intestinal normal bacterial flora
Description: as §1

Enterococcus spp. = assay: Composition of flora in feces of HFA mice: Enterococcus spp.; assay type: in vivo; settings: 4th and 27th day from the medication, 500 μg/Ml in drinking water
anaerobic bacteria = assay: Composition of flora in feces of HFA mice: total number of anaerobic bacteria; assay type: in vivo; settings: 17th day, 500 μg/Ml in drinking water
Text: as §2

[1] = 5th day since the medication is stopped

colistin sulfate
Glucosidase activity, recovery (glucosidase; [1]): not recovered
Glucosidase activity in comparison with the control groups (glucosidase; during the medication period): increased
Number of aerobic bacteria in feces (aerobic bacteria): decreased
Nitrate reductase activity, recovery (nitrate reductase; after the 2nd day of the medication): recovered
Nitrate reductase activity in comparison with the control group (nitrate reductase; start day of administration and 2nd day of the medication): increased
Glucuronidase activity, recovery (glucuronidase; [1]): not recovered
Glucuronidase activity in comparison with control groups (glucuronidase; throughout the period of administration and the withdrawal period): decreased
Enterococcus spp. in feces (Enterococcus spp.): decreased in similar way to the control group
Total number of anaerobic bacteria in feces in comparison with HFA mice (anaerobic bacteria): increased by about twice
